What was measured:
[1] = test system: Velvetleaf, Abutilon theophrasti; test: Postemergence herbicidal evaluation, ABUTH; format: in vivo, Medic.; conditions: 0.2500 kg/ha
Outline: (§1)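 Plants were raised for roughly two weeks, then treated by spraying at 40 psi with test compound dispersed in 50/50 acetone/water with 0.5% TWEEN 20, giving about 0.0157 to 0.500 kg/ha. After four to five weeks in the greenhouse they were scored 0–9 against a control.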

[2] = test system: SAGPY Arrowhead (Pygmaea); test: Postemergence weed control, flooded paddy (Table IV); format: in vivo, Sagittaria pygmaea; design: scale not given here
Text: (§2) Plastic containers containing weeds which are 3 to 5 cm tall and rice seedlings at the 1.5 to 2.5 leaf stage are flooded with water. The water is maintained at 1.5 to 3 cm above the soil surface for the duration of the experiment. Test compounds are applied as aqueous/acetone mixtures 50/50 v/v directly into the flood water to provide the equivalent of about 0.0313 to 0.500 kg/ha of active ingredient. The treated containers are placed on greenhouse benches and cared for in accordance with conventional greenhouse procedures. Three to four weeks after treatment, the test is terminated and each container is examined and herbicidal effect rated according to the rating system provided in Example 185. The compounds evaluated are reported by compound number given in Example 185.

[3] = test system: Foxtail, Green, Setaria viridis; test: Preemergence herbicidal evaluation, SETVI; format: in vivo, (L.) Beau; conditions: 0.2500 kg/ha
Text: (§3) Results of herbicide evaluation are expressed on a rating scale (0-9). The scale is based upon a visual observation of plant stand, vigor, malformation, size, chlorosis and overall plant appearance as compared with a control.
(§4) The preemergence herbicidal activity of the test compounds of the present invention is exemplified by the following tests in which the seeds of a variety of monocotyledonous and dicotyledonous plants are separately mixed with potting soil and planted on top of approximately one inch of soil in separate pint cups. After planting, the cups are sprayed with the selected aqueous acetone solution containing test compound in sufficient quantity to provide the equivalent of about 0.0156 to 0.500 kg per hectare of test compound per cup. The treated cups are then placed on greenhouse benches, watered and cared for in accordance with conventional greenhouse procedures. From four to five weeks after treatment, the tests are terminated and each cup is examined and rated according to the rating system provided in Example 185.
(§5) The compounds evaluated are reported by compound number given in Example 185.

[4] = test system: Lambsquarters, Common, Chenopodium album; test: Postemergence herbicidal evaluation, CHEAL; format: in vivo, L.; conditions: 0.2500 kg/ha
Outline: as §1

[5] = test system: Barnyardgrass, Echinochloa crus-galli; test: Preemergence herbicidal evaluation, ECHCG; format: in vivo, (L.) Beau; conditions: 0.2500 kg/ha
Text: as §3, §4, §5

[6] = test system: Galium, Galium aparine; test: Postemergence herbicidal evaluation, GALAP; format: in vivo; conditions: 0.2500 kg/ha
Outline: as §1

[7] = test system: CYPIR Rice Flatsedge; test: Postemergence weed control, flooded paddy (Table IV); format: in vivo, Cyperus iria; design: scale not given here
Text: as §2

[8] = test system: Ragweed, Common, Ambrosia artemisifolia; test: Preemergence herbicidal evaluation, AMBEL; format: in vivo, L.; conditions: 0.2500 kg/ha
Text: as §3, §4, §5

[9] = test system: Barnyardgrass, Echinochloa crus-galli; test: Postemergence herbicidal evaluation, ECHCG; format: in vivo, (L.) Beau; conditions: 0.2500 kg/ha
Outline: as §1

[10] = test system: CYPSE Flatsedge; test: Postemergence weed control, flooded paddy (Table IV); format: in vivo, Cyperus serotinus; design: scale not given here
Text: as §2

[11] = test system: MOOVA Monochoria; test: Preemergence weed control, flooded paddy (Table III); format: in vivo, Monochoria vaginalis; design: scale not given here
Procedure: (§6) Preemergence herbicidal activity under flooded paddy conditions is determined as follows: plant seeds or propagating organs are planted in the top 0.5 cm of silt loam soil in 32 oz. plastic containers with a diameter of 10.5 cm and no drainage holes. Water is added to these containers and maintained at 1.5 to 3 cm above the soil surface for the duration of the experiment. The test compounds are applied as aqueous/acetone mixtures 50/50 v/v pipetted directly into the flood water to give the equivalent of about 0.0313 to 0.500 kg/ha of active ingredient. The treated containers are placed on greenhouse benches and cared for in accordance with conventional greenhouse procedures. Three to four weeks after treatment, the test is terminated and each container is examined and herbicidal effect rated according to the rating system provided in Example 185. The compounds evaluated are reported by compound number given in Example 185.

[12] = test system: Morningglory Spp., Ipomoea Spp.; test: Preemergence herbicidal evaluation, IPOSS; format: in vivo; conditions: 0.2500 kg/ha
Text: as §3, §4, §5

[13] = test system: Foxtail, Green, Setaria viridis; test: Postemergence herbicidal evaluation, SETVI; format: in vivo, (L.) Beau; conditions: 0.2500 kg/ha
Outline: as §1

[14] = test system: MOOVA Monochoria; test: Postemergence weed control, flooded paddy (Table IV); format: in vivo, Monochoria vaginalis; design: scale not given here
Text: as §2

[15] = test system: CYPSE Flatsedge; test: Preemergence weed control, flooded paddy (Table III); format: in vivo, Cyperus serotinus; design: scale not given here
Procedure: as §6

[16] = test system: Velvetleaf, Abutilon theophrasti; test: Preemergence herbicidal evaluation, ABUTH; format: in vivo, Medic.; conditions: 0.2500 kg/ha
Text: as §3, §4, §5

[17] = test system: Rice, Tebonnet, Oryza sativa; test: Postemergence herbicidal evaluation, ORYSAT; format: in vivo, (L.) Tebonnet; conditions: 0.2500 kg/ha
Outline: as §1

[18] = test system: Soybean, Williams, Glycine max; test: Postemergence herbicidal evaluation, GLXMAW; format: in vivo, (L.) Merr. cv Williams; conditions: 0.2500 kg/ha
Outline: as §1

COC(=O)COc1cc(C)ccc1-c1nsc2ccc(-n3c(=O)cc(C(F)(F)F)n(C)c3=O)cc12 [Compound 8, Methyl {{6-{5-[3,6-dihydro-3-methyl-4-(trifluoromethyl)-2,6-dioxo-1(2H)-pyrimidinyl]-1,2-benzisothiazol-3-yl}-m-tolyl}oxy}acetate] was tested, and the “herbicide rating (0-9)” value [1] was 9.0, the herbicidal effect rating ([2]; 0.1250 kg/ha) was 4.0 and the herbicidal effect rating ([2]; 0.2500 kg/ha) was 9.0. The herbicidal effect rating ([2]; 0.5000 kg/ha) was 9.0, the “herbicide rating (0-9)” value [3] was 9.0 and the “herbicide rating (0-9)” value [4] was 9.0. For the same molecule, the “herbicide rating (0-9)” value [5] was 9.0, the “herbicide rating (0-9)” value [6] was 9.0 and the herbicidal effect rating ([7]; 0.1250 kg/ha) was 9.0. The herbicidal effect rating ([7]; 0.2500 kg/ha) was 9.0, the herbicidal effect rating ([7]; 0.5000 kg/ha) was 9.0 and the “herbicide rating (0-9)” value [8] was 9.0. For the same molecule, the “herbicide rating (0-9)” value [9] was 9.0, the herbicidal effect rating ([10]; 0.1250 kg/ha) was 7.0 and the herbicidal effect rating ([10]; 0.2500 kg/ha) was 7.0. It also gave a herbicidal effect rating ([10]; 0.5000 kg/ha) of 9.0, a herbicidal effect rating ([11]; 0.0313 kg/ha) of 9.0 and a herbicidal effect rating ([11]; 0.0625 kg/ha) of 9.0. For the same molecule, the herbicidal effect rating ([11]; 0.1250 kg/ha) was 9.0, the herbicidal effect rating ([11]; 0.2500 kg/ha) was 9.0 and the herbicidal effect rating ([11]; 0.5000 kg/ha) was 9.0. For the same molecule, the “herbicide rating (0-9)” value [12] was 9.0, the “herbicide rating (0-9)” value [13] was 9.0 and the herbicidal effect rating ([14]; 0.1250 kg/ha) was 9.0. It also gave a herbicidal effect rating ([14]; 0.2500 kg/ha) of 9.0, a herbicidal effect rating ([14]; 0.5000 kg/ha) of 9.0 and a herbicidal effect rating ([15]; 0.0313 kg/ha) of 4.0. The herbicidal effect rating ([15]; 0.0625 kg/ha) was 9.0, the herbicidal effect rating ([15]; 0.1250 kg/ha) was 9.0 and the herbicidal effect rating ([15]; 0.2500 kg/ha) was 9.0. For the same molecule, the herbicidal effect rating ([15]; 0.5000 kg/ha) was 9.0, the “herbicide rating (0-9)” value [16] was 9.0 and the “herbicide rating (0-9)” value [17] was 8.5. For the same molecule, the “herbicide rating (0-9)” value [18] was 9.0.
Cc1cc(O)c(-c2nsc3ccc(-n4c(=O)cc(C(F)(F)F)n(C)c4=O)cc23)cc1C [Compound 11, 3-[3-(6-Hydroxy-3,4-xylyl)-1,2-benzisothiazol-5-yl]-1-methyl-6-(trifluoromethyl)-2,4(1H,3H)-pyrimidinedione] was tested, and the “herbicide rating (0-9)” value [1] was 9.0, the herbicidal effect rating ([2]; 0.1250 kg/ha) was 0.0 and the herbicidal effect rating ([2]; 0.2500 kg/ha) was 4.0. For the same molecule, the herbicidal effect rating ([2]; 0.5000 kg/ha) was 7.0, the “herbicide rating (0-9)” value [3] was 9.0 and the “herbicide rating (0-9)” value [4] was 9.0. The “herbicide rating (0-9)” value [5] was 0.0, the “herbicide rating (0-9)” value [6] was 6.0 and the herbicidal effect rating ([7]; 0.1250 kg/ha) was 9.0. The herbicidal effect rating ([7]; 0.2500 kg/ha) was 9.0, the herbicidal effect rating ([7]; 0.5000 kg/ha) was 9.0 and the “herbicide rating (0-9)” value [8] was 9.0. The “herbicide rating (0-9)” value [9] was 7.0, the herbicidal effect rating ([10]; 0.1250 kg/ha) was 0.0 and the herbicidal effect rating ([10]; 0.2500 kg/ha) was 0.0. It also gave a herbicidal effect rating ([10]; 0.5000 kg/ha) of 0.0, a herbicidal effect rating ([11]; 0.0625 kg/ha) of 9.0 and a herbicidal effect rating ([11]; 0.1250 kg/ha) of 9.0. The herbicidal effect rating ([11]; 0.2500 kg/ha) was 9.0, the herbicidal effect rating ([11]; 0.5000 kg/ha) was 9.0 and the “herbicide rating (0-9)” value [12] was 5.0. For the same molecule, the “herbicide rating (0-9)” value [13] was 8.0, the herbicidal effect rating ([14]; 0.1250 kg/ha) was 9.0 and the herbicidal effect rating ([14]; 0.2500 kg/ha) was 9.0. The herbicidal effect rating ([14]; 0.5000 kg/ha) was 9.0, the herbicidal effect rating ([15]; 0.0625 kg/ha) was 2.0 and the herbicidal effect rating ([15]; 0.1250 kg/ha) was 2.0. For the same molecule, the herbicidal effect rating ([15]; 0.2500 kg/ha) was 2.0, the herbicidal effect rating ([15]; 0.5000 kg/ha) was 7.0 and the “herbicide rating (0-9)” value [16] was 9.0. For the same molecule, the “herbicide rating (0-9)” value [17] was 2.0 and the “herbicide rating (0-9)” value [18] was 6.0.

Source: patent publication US6156700A, “3-(1,2-Benzisothiazol- and isoxazol-5-yl)-2,4(1H,3H)-pyrimidinedione or thione and 3-(1,2-benzisothiazol- and isoxazol-5-yl)-4(3H)-pyrimidinone or thione herbicidal agents” (American Cyanmid Company, priority 1998, dated 2000)
